Results taken from EP4725957A1, “GROUP OF CYCLIC ALKALINE LIPOPEPTIDE COMPOUNDS, AND PREPARATION METHOD THEREFOR AND USE THEREOF” (Institute of Medicinal Biotechnology, Chinese Academy of …, priority 2023, dated 2024).
Converted amounts (≈) assume the structure as drawn. Bridge positions count the residues as written; N and C are the ends. Square brackets hold non-standard residues; d marks the D form. Peptide text beside a SMILES is read from it. * marks the point of attachment. Heptanoyl(6-Me) = CC(C)CCCCC(=O)*; Nonanoyl = CCCCCCCCC(=O)*; dDab = NCC[C@@H](N)C(=O)O; Heptanoyl = CCCCCCC(=O)*; Orn = NCCC[C@H](N)C(=O)O; dDap = NC[C@@H](N)C(=O)O; Dab = NCC[C@H](N)C(=O)O; Dap = NC[C@H](N)C(=O)O

Assays:
Assay type in all cases: cell-based
[1] = Nephrotoxicity assay: in vitro cytotoxicity of HK-2 cells by CCK-8 assay; conditions: human, HK-2 cells (human renal), 72 h incubation with drug-containing medium
Procedure: In vitro cytotoxicity detection of HK-2 cells was performed by the CCK-8 assay.
The culture medium for human renal HK-2 cells was a complete RPMI-1640 medium (Invitrogen) supplemented with 10% fetal bovine serum (FBS, Gibco). The cryopreservation solution was composed of 90% FBS and 10% dimethyl sulfoxide (DMSO), and the cells were preserved long-term in liquid nitrogen. Cells were cultured in a sterile incubator with a humidified atmosphere containing 5% CO2 at 37°C. When the cell density reached 70%-80%, cell digestion and subculture were conducted. The cyclic lipopeptide compounds prepared in Examples 1-120 were weighed and dissolved in sterile water to prepare a mother solution with a concentration of 1 mg/mL. Drug-containing culture media were then formulated, with the final concentrations set as 500, 250, 200, 100, 50, 25, and 12.5 µg/mL, respectively. Cells were adjusted to a density of 5 × 10^4 cells/mL and seeded into 96-well plates, with 100 µL of cell suspension added to each well. After stable incubation for 24 h, the original medium was replaced with the prepared drug-containing medium, and the plates were incubated in the incubator for an additional 72 h. The medium was gently aspirated, and 100 µL of blank medium containing 10% CCK-8 was added to each well. After incubation in the incubator for 3 h, the optical density (OD) values at 450 nm were measured using a BIOTEK microplate reader. The experiment was repeated three times. For each replicate, polymyxin B was set as the positive drug, and a drug-free blank group was established as the control. The cell viability (%) was calculated by the formula: Cell viability (%) = [(OD of drug-treated group - OD of zero-setting) / (OD of drug-free group - OD of zero-setting)] × 100%. The half-maximal inhibitory concentration (IC50) values were calculated through logarithmic regression analysis.
The cells used for the nephrotoxicity assay were obtained from the ATCC ( American Type Culture Collection). The Cell Counting Kit-8 (CCK-8) used in the assay was supplied by Beyotime Biotechnology Co., Ltd.

[2] = system: Escherichia coli ATCC BAA-2340 (KPC); conditions: ATCC BAA-2340
Procedure: (§1) The minimal inhibitory concentration (MIC) was determined by the broth microdilution method according to the recommended procedures of the Clinical and Laboratory Standards Institute (CLSI).
(§2) An appropriate amount of the cyclic lipopeptide compounds prepared in Examples 1-120 and the reference standards were weighed and dissolved in sterile pure water. An appropriate volume of the mother solution was subjected to ten-fold dilution with sterile Mueller-Hinton (MH) broth to a concentration of 0.256 mg/mL. Half of the drug solution was aliquoted into 96-well reagent reservoirs, while the other half was subjected to two-fold serial dilution with sterile MH broth before being transferred into deep-well reagent reservoirs. The above steps were repeated, so that the drug concentrations in the reagent reservoirs were adjusted to 128, 64, 32, 16, 8, 4, 2, 1, 0.5, 0.25, 0.125 and 0.06 mg/L in sequence, and all solutions were prepared and used immediately. Several colonies were picked from agar plates cultured for 18-24 h and directly suspended in sterile normal saline, and the concentration of the bacterial suspension was adjusted to 0.5 McFarland units. The calibrated bacterial suspension was diluted with MH broth to a concentration of (4-8) × 10^5 colony-forming units per milliliter (CFU/mL) and prepared and used immediately. A volume of 100 µL of the aforementioned compounds of the present disclosure (e.g., the compounds prepared in the examples) and reference solutions at different concentrations was separately pipetted into wells 1 to 12 of sterile 96-well polystyrene plates, and an additional 100 µL of the aforementioned inoculum was added to each well. The final concentrations of the samples in the wells were adjusted to 64, 32, 16, 8, 4, 2, 1, 0.5, 0.25, 0.125, 0.06 and 0.03 mg/L, respectively, and the final concentration of the inoculum in each well was (2-4) × 10^5 CFU/mL. Additional growth control wells were set up, each containing 100 µL of the inoculum and 100 µL of sterile MH broth. The test substances and inocula in all wells were mixed thoroughly and then sealed. The inoculated 96-well plates were incubated in an incubator at 35-37°C for 16-20 h.
(§3) The strains used for the antibacterial activity assay were obtained from the American Type Culture Collection (ATCC) and clinical isolates.
(§4) The strains employed for the antibacterial activity assay included Escherichia coli ATCC BAA-2523, ATCC BAA-2340 (KPC), Klebsiella pneumoniae KPN+19-15, ATCC BAA-1705 (KPC), Pseudomonas aeruginosa PAE19-3, ATCC 27853, Acinetobacter baumannii ABA19-1, and NCTC 13304 (OXA-27).

[3] = system: Klebsiella pneumoniae KPN+19-15; conditions: KPN+19-15
Procedure: as §1, §2, §3, §4

[4] = system: Acinetobacter baumannii NCTC 13304 (OXA-27); conditions: NCTC 13304
Procedure: as §1, §2, §3, §4

[5] = system: Escherichia coli ATCC BAA-2523; conditions: ATCC BAA-2523
Procedure: as §1, §2, §3, §4

[6] = system: Acinetobacter baumannii ABA19-1; conditions: ABA19-1
Procedure: as §1, §2, §3, §4

[7] = system: Pseudomonas aeruginosa ATCC 27853; conditions: ATCC 27853
Procedure: as §1, §2, §3, §4

[8] = system: Pseudomonas aeruginosa PAE19-3; conditions: PAE19-3
Procedure: as §1, §2, §3, §4

[9] = system: Klebsiella pneumoniae ATCC BAA-1705 (KPC); conditions: ATCC BAA-1705
Procedure: as §1, §2, §3, §4

Row | SMILES | IC50 at 72 h [1] | MIC [2] | MIC [3] | MIC [4] | MIC [5] | MIC [6] | MIC [7] | MIC [8] | MIC [9]
1 | CCCCCCC(=O)N[C@@H](CCN)C(=O)N[C@H](C(=O)N[C@H](CO)C(=O)N[C@H]1CCNC(=O)[C@H]([C@@H](C)O)NC(=O)[C@H](CCCN)NC(=O)[C@H](CCN)NC(=O)[C@H]([C@@H](C)O)NC(=O)[C@@H](Cc2ccccc2)NC(=O)[C@H](CCN)NC1=O)[C@@H](C)O [Compound 89, Heptanoyl-Dab-Thr-D-Ser-ring(4-10)[Dab-Dab-D-Phe-Thr-Dab-Orn-Thr]] (Heptanoyl-[Dab]T[dS][Dab][Dab][dF]T[Dab][Orn]T; lactam 4-C) | > 500 µg/mL | 0.125 µg/mL (≈ 0.107 µM) | 0.5 µg/mL (≈ 0.429 µM) | 0.03 µg/mL (≈ 0.0258 µM) | 0.125 µg/mL (≈ 0.107 µM) | 0.06 µg/mL (≈ 0.0515 µM) | >64 µg/mL | 64 µg/mL (≈ 55 µM) | 0.25 µg/mL (≈ 0.215 µM)
2 | CCCCCCCCC(=O)N[C@@H](CCN)C(=O)N[C@H](C(=O)N[C@H](CN)C(=O)N[C@H]1CCNC(=O)[C@H]([C@@H](C)O)NC(=O)[C@H](CCN)NC(=O)[C@H](CCN)NC(=O)[C@H](CC(C)C)NC(=O)[C@@H](Cc2ccccc2)NC(=O)[C@H](CCN)NC1=O)[C@@H](C)O [Compound 35, Nonanoyl-Dab-Thr-D-Dap-ring(4-10)[Dab-Dab-D-Phe-Leu-Dab-Dab-Thr]] (Nonanoyl-[Dab]T[dDap][Dab][Dab][dF]L[Dab][Dab]T; lactam 4-C) | 138 ± 8.3 µg/mL (≈ 116 µM) | 0.06 µg/mL (≈ 0.0504 µM) | 0.06 µg/mL (≈ 0.0504 µM) | 0.06 µg/mL (≈ 0.0504 µM) | 0.06 µg/mL (≈ 0.0504 µM) | 0.06 µg/mL (≈ 0.0504 µM) | 0.06 µg/mL (≈ 0.0504 µM) | 0.5 µg/mL (≈ 0.42 µM) | 0.06 µg/mL (≈ 0.0504 µM)
3 | CC(C)CCCCC(=O)N[C@@H](CN)C(=O)N[C@H](C(=O)N[C@H](CCN)C(=O)N[C@H]1CCNC(=O)[C@H]([C@@H](C)O)NC(=O)[C@H](CCN)NC(=O)[C@H](CCN)NC(=O)[C@H](CC(C)C)NC(=O)[C@@H](CC(C)C)NC(=O)[C@H](CCN)NC1=O)[C@@H](C)O [Compound 97, 6-methylheptanoyl-Dap-Thr-D-Dab-ring(4-10)[Dab-Dab-D-Leu-Leu-Dab-Dab-Thr]] ({Heptanoyl(6-Me)}-[Dap]T[dDab][Dab][Dab][dL]L[Dab][Dab]T; lactam 4-C) | 217 ± 11.2 µg/mL (≈ 190 µM) | 0.03 µg/mL (≈ 0.0263 µM) | 0.03 µg/mL (≈ 0.0263 µM) | 0.03 µg/mL (≈ 0.0263 µM) | 0.03 µg/mL (≈ 0.0263 µM) | 0.03 µg/mL (≈ 0.0263 µM) | 0.5 µg/mL (≈ 0.438 µM) | 0.5 µg/mL (≈ 0.438 µM) | 0.03 µg/mL (≈ 0.0263 µM)
4 | CCCCCCC(=O)N[C@@H](CCN)C(=O)N[C@H](C(=O)N[C@H](CO)C(=O)N[C@H]1CCNC(=O)[C@H]([C@@H](C)O)NC(=O)[C@H](CCN)NC(=O)[C@H](CCN)NC(=O)[C@H]([C@@H](C)O)NC(=O)[C@@H](Cc2ccccc2)NC(=O)[C@H](CN)NC1=O)[C@@H](C)O [Compound 64, Heptanoyl-Dab-Thr-D-Ser-ring(4-10)[Dab-Dap-D-Phe-Thr-Dab-Dab-Thr]] (Heptanoyl-[Dab]T[dS][Dab][Dap][dF]T[Dab][Dab]T; lactam 4-C) | > 500 µg/mL | 0.25 µg/mL (≈ 0.22 µM) | 0.5 µg/mL (≈ 0.44 µM) | 0.25 µg/mL (≈ 0.22 µM) | 0.25 µg/mL (≈ 0.22 µM) | 0.25 µg/mL (≈ 0.22 µM) | 64 µg/mL (≈ 56.3 µM) | 8 µg/mL (≈ 7.04 µM) | 0.25 µg/mL (≈ 0.22 µM)
